Assay results as given in ChEMBL document CHEMBL1153773, “Structure-activity relationship of seco-tanapartholides isolated from Achillea falcata for inhibition of HaCaT cell growth” (Eur J Med Chem, 2009).
Converted amounts (≈) assume the structure as drawn. The source made the active and inactive calls. The calls are words filed in the database; no cut-off is given here.

Key:
HaCaT [1] = test: Cytotoxicity against human HaCaT cells after 24 hrs by MTT assay; format: functional, cell-based
HaCaT [2] = test: Cytotoxicity against human HaCaT cells assessed as lactate dehydrogenase release at 20 ug/ml after 6 hrs by ELISA; format: functional
HaCaT [3] = test: Cytotoxicity against human HaCaT cells assessed as lactate dehydrogenase release at 75 ug/ml after 6 hrs by ELISA; format: functional
HaCaT [4] = test: Cytotoxicity against human HaCaT cells assessed as lactate dehydrogenase release at 25 ug/ml after 6 hrs by ELISA; format: functional
HaCaT [5] = test: Cytotoxicity against human HaCaT cells assessed as lactate dehydrogenase release at 10 ug/ml after 6 hrs by ELISA; format: functional
HaCaT [6] = test: Cytotoxicity against human HaCaT cells assessed as lactate dehydrogenase release at 50 ug/ml after 6 hrs by ELISA; format: functional
HaCaT [7] = test: Cytotoxicity against human HaCaT cells assessed as lactate dehydrogenase release at 15 ug/ml after 6 hrs by ELISA; format: functional
HaCaT [8] = test: Cytotoxicity against human HaCaT cells assessed as lactate dehydrogenase release at 5 ug/ml after 6 hrs by ELISA; format: functional
HaCaT [9] = test: Cytotoxicity against human HaCaT cells assessed as lactate dehydrogenase release at 100 ug/ml after 6 hrs by ELISA; format: functional
[10] = Cytotoxicity against human Keratinocyte cells assessed as reduction in cell viability at 10 ug/ml after 24 hrs by MTT assay; format: cell-based
HaCaT [11] = test: Cytotoxicity against human HaCaT cells assessed as reduction in cell viability at 5 ug/ml after 24 hrs by MTT assay; format: functional
HaCaT [12] = test: Cell cycle arrest in human HaCaT cells assessed as accumulation at G2/M phase after 24 hrs; format: functional, cell-based
[13] = Cytotoxicity against human Keratinocyte cells assessed as reduction in cell viability at 5 ug/ml after 24 hrs by MTT assay; format: cell-based
[14] = Cytotoxicity against human keratinocytes at 25 ug/ml; format: cell-based; details: keratinocyte
HaCaT [15] = test: Cytotoxicity against human HaCaT cells assessed as reduction in cell viability at 10 ug/ml after 24 hrs by MTT assay; format: functional

C=C1C(=O)O[C@H](C2=C(C)C(O)CC2=O)[C@@H]1CCC(C)=O (mixture of isomers)
Activity (HaCaT [1]): Dose-dependent effect | IC50 (HaCaT [1]): 19.1 µg/mL | Activity (HaCaT [2]): 5% | Activity (HaCaT [3]): 0% | Activity (HaCaT [4]): 3% | Activity (HaCaT [5]): 3% | Activity (HaCaT [6]): 0% | Activity (HaCaT [7]): 2% | Activity (HaCaT [8]): 2% | Activity (HaCaT [9]): 0%

C=C1C(=O)O[C@H](C2=C(C)C(OC)CC2=O)[C@@H]1[C@@H](O)CC(C)=O (stereo not given in full)
Activity (HaCaT [1]): Dose-dependent effect | IC50 (HaCaT [1]): 16.7 µg/mL (≈ 54.2 µM) | Activity (HaCaT [2]): 4% | Activity (HaCaT [3]): 1% | Activity (HaCaT [4]): 5% | Activity (HaCaT [5]): 4% | Activity (HaCaT [6]): 2% | Activity (HaCaT [7]): 4% | Activity (HaCaT [8]): 4% | Activity (HaCaT [9]): 0%

C=C1C(=O)O[C@H](C2=C(C)[C@@H](OC)CC2=O)[C@@H]1CCC(C)=O
Activity (HaCaT [1]): Dose-dependent effect | IC50 (HaCaT [1]): 7.1 µg/mL (≈ 24.3 µM) | Activity [10]: > 10% | Activity (HaCaT [2]): 5% | Activity (HaCaT [3]): 0% | Activity (HaCaT [11]): 44% | Activity (HaCaT [12]): Active | Activity (HaCaT [4]): 7% | Activity (HaCaT [5]): 7% | Activity [13]: > 10% | Activity [14]: Toxic | Activity (HaCaT [6]): 0% | Activity (HaCaT [7]): 7% | Activity (HaCaT [15]): 66% | Activity (HaCaT [8]): 7% | Activity (HaCaT [9]): 0%

C=C1C(=O)O[C@H](C2=C(C)[C@@H](O)CC2=O)[C@@H]1CCC(C)=O
Activity (HaCaT [1]): Dose-dependent effect | IC50 (HaCaT [1]): 13 µg/mL (≈ 46.7 µM) | Activity (HaCaT [2]): 11% | Activity (HaCaT [3]): 2% | Activity (HaCaT [4]): 11% | Activity (HaCaT [5]): 18% | Activity (HaCaT [6]): 0% | Activity (HaCaT [7]): 0% | Activity (HaCaT [8]): 4%
